Patent publication EP0364941A1, “Branched-chain alkyl esters of 2-(4-(2-piperidino ethoxy)benzoyl)benzoic acid, processes for their preparation and their use as spasmolytic agents” (HOECHST AKTIENGESELLSCHAFT, priority 1988, dated 1990)
Like-named read-outs stand apart in the source and are kept apart here.

Tested on: small intestine
Test: Motility of the small intestine in the conscious dog
Type: in vivo
Settings: for Area under the contraction curve, Postdrug 10 min: 10 min postdrug; for Area under the contraction curve, Postdrug 10 min / Area under the contraction curve, Postdrug 20 min / Area under the contraction curve, Postdrug 30 min / Area under the contraction curve, Postdrug 40 min / Area under the contraction curve, Postdrug 50 min / Area under the contraction curve, Postdrug 60 min / Area under the contraction curve, Predrug -20 - 0: phase I and II; for Area under the contraction curve, Postdrug 20 min: 20 min postdrug; for Area under the contraction curve, Postdrug 30 min: 30 min postdrug; for Area under the contraction curve, Postdrug 40 min: 40 min postdrug; for Area under the contraction curve, Postdrug 50 min: 50 min postdrug; for Area under the contraction curve, Postdrug 60 min: 60 min postdrug; for Inhibition Maximal / Inhibition Mean / ED50: phase I+II activity; for Area under the contraction curve, Predrug -20 - 0: predrug baseline -20 - 0 min; for Duration of action: when postdrug values reached 90 % or more of predrug values; for ED50: Canis lupus familiaris, iv
Text: Male dogs (THG Tierhandelsgesellschaft Rodenbach, Hoe:BEAK (Beagle)) weighing 15 - 20 kg were used in all experiments. At least 4 weeks prior to the experiment the dogs had been equipped with miniaturized strain gage force transducers (T1-T3) (2x4 mm), sutured onto the gut at the locations mentioned below. The cables of the transducers were embedded into a cannula which carried the plug for external electric connection. This stainless steel cannula was implanted into the abdominal wall, close below the costal arch. Each transducer was connected to a measuring bridge. The signals were on line stored using a HP 9835 A computer, allowing later analysis of the data. • T1 : Proximal jejunum • T2 : Distal jejunum • T3 : Ileum
18 hours prior to the experiment food was withdrawn from the animals, water ad libidum. All experiments started between 08:00 and 09:00 am.
The following motility parameters were determined: The integral under the […] at 10 min intervals (mNx10min) as an index of phase I + II activity. The duration of drug action (min.) The duration of the interdigestive migrating complex (IMC) (min) as a measure of phase III activity.
Test Compound II was given at doses of 0.2 and 0.5 mg/kg i.v. or 5 mg/kg i.g., dissolved in saline, in a volume of 1 ml/kg (i.v.) or 2 ml/kg (i.g.), n = 3 - 6. Control n = 26.
Buscopan was given at doses of 0.3 and 1 mg/kg i.v., dissolved in saline, in a volume of 1 ml/kg, n = 4 - 6. Pitofenone was given at doses of 1 mg/kg i.v., dissolved in saline, in a volume of 1 ml/kg, n = 8.
ID₅₀-values were determined graphically.

CC(C)OC(=O)c1ccccc1C(=O)c1ccc(OCCN2CCCCC2)cc1.Cl [Test Compound II, Isopropyl-2-[4-(2-piperidino-ethoxy)-benzoyl]-benzoate hydrochloride]
Area under the contraction curve, Postdrug 10 min (0.2 mg/kg i.v.): 1.54 mN x 10 min
Area under the contraction curve, Postdrug 20 min (0.2 mg/kg i.v.): 1.42 mN x 10 min
Area under the contraction curve, Postdrug 30 min (0.2 mg/kg i.v.): 1.88 mN x 10 min
Area under the contraction curve, Postdrug 40 min (0.2 mg/kg i.v.): 1.77 mN x 10 min
Area under the contraction curve, Postdrug 50 min (0.2 mg/kg i.v.): 1.78 mN x 10 min
Area under the contraction curve, Postdrug 60 min (0.2 mg/kg i.v.): 2.19 mN x 10 min
Inhibition Maximal (0.2 mg/kg i.v.): 34%
Inhibition Mean (0.2 mg/kg i.v.): 22 ± 4%
Area under the contraction curve, Predrug -20 - 0 (0.2 mg/kg i.v.): 2.15 mN x 10 min
Duration of action (0.2 mg/kg i.v.): 50 min
duration of inhibitory effect (0.5 mg/kg i.v., conscious dog): approximately one
Area under the contraction curve, Postdrug 10 min (0.5 mg/kg i.v.): 0.54 mN x 10 min
Area under the contraction curve, Postdrug 20 min (0.5 mg/kg i.v.): 0.50 mN x 10 min
Area under the contraction curve, Postdrug 30 min (0.5 mg/kg i.v.): 0.99 mN x 10 min
Area under the contraction curve, Postdrug 40 min (0.5 mg/kg i.v.): 1.17 mN x 10 min
Area under the contraction curve, Postdrug 50 min (0.5 mg/kg i.v.): 1.61 mN x 10 min
Area under the contraction curve, Postdrug 60 min (0.5 mg/kg i.v.): 2.46 mN x 10 min
Inhibition Maximal (0.5 mg/kg i.v.): 81%
Inhibition Mean (0.5 mg/kg i.v.): 54 ± 11%
Area under the contraction curve, Predrug -20 - 0 (0.5 mg/kg i.v.): 2.62 mN x 10 min
Duration of action (0.5 mg/kg i.v.): 60 min
Duration of cycles (5 mg/kg intragastrical, Phase III activity): 298 ± 18 min
inhibition of phase III activity (5 mg/kg intragastrically, conscious dog): pronounced inhibition
ED50 (conscious dog, read-out: intravenous IC₅₀-values determined from maximal inhibition): 0.22 mg/kg
ED50 (determined graphically, read-out: ID₅₀): 0.26 mg/kg
